Where two headings read alike, the source gives them in different places.
How the values were obtained:
[1] = Induced degradation of 5-azacytidine in liquid state (HPLC); assay type: physicochemical
Description: (§1) The HPLC measurements were performed using a system equipped with an Inertsil C18 column (ODS-2, 5 microns, 250×4.6 mm (ODS-167)). Other parameters of the system were as follows: • Detection: UV detector operated on 242 nm • Column temperature: 20° C. • Run time: 45 minutes • Injection volume: 10 μl • Flow rate: 1.0 ml/minute • Sample set temperature: 5° C. • Sample concentration: about 1.65 mg/ml • Diluent: Mixture of 30% 10 mM ammonium acetate and 70% THF
(§2) Analyses were performed using the following mobile phase • Mobile Phase (Eluent) A: 10 mM ammonium acetate • Mobile Phase (Eluent) B: 60% 10 mM ammonium acetate, 40% MeOH
Acidic hydrolysis—blank preparation: Hydrochloric acid (5 ml, 0.01M HCl) was diluted to 10 ml with the diluent. […] An aliquot (5 ml) was diluted to 10 ml with the diluent. The blank preparation and sample preparation were injected to the HPLC system by using the chromatographic conditions as mentioned in example 8. • Basic hydrolysis—blank preparation: Sodium hydroxide (5 ml, 0.01M NaOH) was diluted to 10 ml with the diluent. […] An aliquot (5 ml) was diluted to 10 ml with diluent. […] An aliquot (5 ml) was diluted to 10 ml with the diluent. The blank and sample preparations were injected to the HPLC system using the chromatographic conditions as detailed in example 8. • Photolysis—blank preparation: The diluent (50 ml) was mixed under UV light for 48 hours. […] The blank preparation and sample preparation were injected to the HPLC system using the chromatographic conditions as mentioned in example 8.

[2] = Solution stability of 5-azacytidine in the HPLC diluent; assay type: physicochemical; settings: for Area (%) at RRT 1.00 (5-azacytidine) / Area (%) of peak at RRT 0.63 / Area (%) of peak at RRT 2.01 / Area (%) of peak at RRT 2.05 / Total impurities by % area: HPLC diluent, about 1.65 mg/ml
Description: as §1, §2

[3] = cited from earlier work
[4] = Photolysis: in the diluent, UV light 48 hours

Area (%) of peak at RRT 0.42 [1, 4]: 0.20% | Area (%) of peak at RRT 0.63 [1, 4]: 35.24% | Area (%) of peak at RRT 1.18 [1, 4]: 0.46% | Area (%) of peak at RRT 1.65 [1, 4]: 0.39% | Area (%) of peak at RRT 2.01 [1, 4]: 0.86% | Area (%) of peak at RRT 2.05 [1, 4]: 0.17% | Total impurities (%) [1, 4]: 38.36% | Area (%) at RRT 1.00 (5-azacytidine) ([1]; Storage (reference sample)): 96.72% | Area (%) of peak at RRT 0.63 ([1]; Storage (reference sample)): 1.55% | Area (%) of peak at RRT 2.01 ([1]; Storage (reference sample)): 1.37% | Area (%) of peak at RRT 2.05 ([1]; Storage (reference sample)): 0.24% | Total impurities (%) ([1]; Storage (reference sample)): 3.28% | Degradation in liquid state (HPLC analysis) ([1]; liquid state, Table 9): significant degradation | Area (%) at RRT 1.00 (5-azacytidine) ([2]; 0 hours): 96.72% | Area (%) of peak at RRT 0.63 ([2]; 0 hours): 1.55% | Area (%) of peak at RRT 2.01 ([2]; 0 hours): 1.37% | Area (%) of peak at RRT 2.05 ([2]; 0 hours): 0.24% | Total impurities by % area ([2]; 0 hours): 3.28% | Area (%) at RRT 1.00 (5-azacytidine) ([2]; 4 hours): 96.21% | Area (%) of peak at RRT 0.63 ([2]; 4 hours): 2.04% | Area (%) of peak at RRT 2.01 ([2]; 4 hours): 1.41% | Area (%) of peak at RRT 2.05 ([2]; 4 hours): 0.24% | Total impurities by % area ([2]; 4 hours): 3.79% | Area (%) at RRT 1.00 (5-azacytidine) ([2]; 5 hours): 96.11% | Area (%) of peak at RRT 0.63 ([2]; 5 hours): 2.16% | Area (%) of peak at RRT 2.01 ([2]; 5 hours): 1.37% | Area (%) of peak at RRT 2.05 ([2]; 5 hours): 0.24% | Total impurities by % area ([2]; 5 hours): 3.89% | Area (%) at RRT 1.00 (5-azacytidine) ([2]; 6 hours): 96.00% | Area (%) of peak at RRT 0.63 ([2]; 6 hours): 2.30% | Area (%) of peak at RRT 2.01 ([2]; 6 hours): 1.36% | Area (%) of peak at RRT 2.05 ([2]; 6 hours): 0.24% | Total impurities by % area ([2]; 6 hours): 4.00% | Area (%) at RRT 1.00 (5-azacytidine) ([2]; 7 hours): 95.85% | Area (%) of peak at RRT 0.63 ([2]; 7 hours): 2.43% | Area (%) of peak at RRT 2.01 ([2]; 7 hours): 1.37% | Area (%) of peak at RRT 2.05 ([2]; 7 hours): 0.23% | Total impurities by % area ([2]; 7 hours): 4.15% | Area (%) at RRT 1.00 (5-azacytidine) ([2]; 8 hours): 95.74% | Area (%) of peak at RRT 0.63 ([2]; 8 hours): 2.55% | Area (%) of peak at RRT 2.01 ([2]; 8 hours): 1.37% | Area (%) of peak at RRT 2.05 ([2]; 8 hours): 0.24% | Total impurities by % area ([2]; 8 hours): 4.26% | Area (%) at RRT 1.00 (5-azacytidine) ([2]; 9 hours): 95.63% | Area (%) of peak at RRT 0.63 ([2]; 9 hours): 2.66% | Area (%) of peak at RRT 2.01 ([2]; 9 hours): 1.37% | Area (%) of peak at RRT 2.05 ([2]; 9 hours): 0.24% | Total impurities by % area ([2]; 9 hours): 4.37% | Area (%) at RRT 1.00 (5-azacytidine) ([2]; 10 hours): 95.50% | Area (%) of peak at RRT 0.63 ([2]; 10 hours): 2.77% | Area (%) of peak at RRT 2.01 ([2]; 10 hours): 1.37% | Area (%) of peak at RRT 2.05 ([2]; 10 hours): 0.24% | Total impurities by % area ([2]; 10 hours): 4.50% | Area (%) at RRT 1.00 (5-azacytidine) ([2]; 11 hours): 95.40% | Area (%) of peak at RRT 0.63 ([2]; 11 hours): 2.87% | Area (%) of peak at RRT 2.01 ([2]; 11 hours): 1.37% | Area (%) of peak at RRT 2.05 ([2]; 11 hours): 0.24% | Total impurities by % area ([2]; 11 hours): 4.60%
SMILES: Nc1ncn([C@@H]2O[C@H](CO)[C@@H](O)[C@H]2O)c(=O)n1 [5-azacytidine, 4-amino-1-β-D-ribofuranosyl-1,3,5-s-triazine-2(1H)-one]
Solution stability in HPLC diluent ([2]; dissolved in the HPLC diluent): stable within the average time period needed to complete the HPLC method | Solubility ([3]; in 5% Tween 80 in water): sparingly soluble | Solubility ([3]; in 5% dextrose in water): sparingly soluble | Solubility ([3]; in N-methyl-2-pyrrolidone): sparingly soluble | Solubility ([3]; in acetone): insoluble | Solubility ([3]; in dimethylsulfoxide (DMSO)): soluble | Solubility ([3]; in ethanol/water (50/50)): slightly soluble | Solubility ([3]; in ethanol): insoluble | Solubility ([3]; in methyl ethyl ketone): insoluble | Solubility ([3]; in normal saline): sparingly soluble | Solubility ([3]; in polyethylene glycol): slightly soluble | Solubility ([3]; in propylene glycol): slightly soluble | Solubility ([3]; in water saturated octanol): sparingly soluble | Solubility ([3]; in water): sparingly soluble

— patent US20110288042A1, “STABLE HIGHLY PURE AZACITIDINE AND PREPARATION METHODS THEREFOR” (CHEMAGIS LTD., priority 2007, published 2011)
